Source: US20110110924A1, “Resistin as a Marker and Therapeutic Target for Cardiovascular Disease” (priority 2004, published 2011)
Peptide text beside a SMILES is read from it. * marks the point of attachment. Cbz = O=C(OCc1ccccc1)*

Key:
[1] = tested on: resistin mRNA in primary human macrophages; assay: Resistin mRNA expression in primary human macrophages (real time PCR); type: cell-based; details: for effect on induction of resistin by LPS: pretreated 2 h, then LPS (1 ng/ml) 24 h
Experimental: (§1) Peripheral blood mononuclear cells were isolated from whole blood of healthy donors following apheresis and elutriation. […] Cells were plated in 24 well plates at a density of 10^6 cells per well, allowed to adhere for 4 hours, then washed with Dulbecco's Modified Eagles Medium (DMEM) and further cultured in 10% FBS in DMEM supplemented with 5 ng/ml GM-CSF (Sigma) to promote macrophage differentiation. All experiments were performed after overnight equilibration with macrophage serum free medium (Gibco/Invitrogen) supplemented with 5 ng/ml GM-CSF. […] Adenovirus expressing activated IKK in pAD-easy™ vector with GFP and control vector were a generous gift from Steven Shoelson.
RNA was isolated using RNeasy® Mini Kit (Qiagen), then subjected to DNAse digestion followed by reverse transcription (Invitrogen). mRNA transcripts were quantified by the dual-labeled fluorogenic probe method for real time PCR, using a Prism® 7900 thermal cycler and sequence detector (Perkin Elmer/ABI). Real time PCR was performed by using Taqman® Universal Polymerase Master Mix (Applied Biosystems). The primers and probes used in the real-time PCR were the following: […]
The cycle number at which the transcripts of the gene of interest was detectable (CT) was normalized to the cycle number of 36B4 detection, referred to as δ CT. The fold change of the gene of interest expression relative to the vehicle treated group was expressed as 2^− δδ^CT, in which δδ CT equals the δCT of the compound treated group minus δCT of the chosen control group, which was normalized to 1.

[2] = tested on: TNFα secretion by human macrophages; assay: TNFα secretion into medium by primary human macrophages; type: cell-based; details: LPS 1 μg/ml, time course
Experimental: (§2) Peripheral blood mononuclear cells were isolated from whole blood of healthy donors following apheresis and elutriation. Greater than 90% of these monocytes expressed CD14 and HLA-DR. Cells were plated in 24 well plates at a density of 10^6 cells per well, allowed to adhere for 4 hours, then washed with Dulbecco's Modified Eagles Medium (DMEM) and further cultured in 10% FBS in DMEM supplemented with 5 ng/ml GM-CSF (Sigma) to promote macrophage differentiation. All experiments were performed after overnight equilibration with macrophage serum free medium (Gibco/Invitrogen) supplemented with 5 ng/ml GM-CSF. Cells were treated as indicated with LPS (Sigma), aspirin (Sigma), SN50 and control peptide (Biomol), MG132, PD98059, SB20358 (Calbiochem), and TNFα (R&D Systems). Neutralizing antibodies to TNFα, IL-6, and anti-IL-6α, as well as control IgG were obtained from R&D Systems. Adenovirus expressing activated IKK in pAD-easy™ vector with GFP and control vector were a generous gift from Steven Shoelson.

[3] = tested on: resistin protein secretion by human macrophages; assay: Resistin protein secretion by primary human macrophages (ELISA); type: cell-based
Experimental: as §1
Resistin concentrations, in cell media and human plasma, were assessed with a commercially available ELISA (Linco) and normalized to cell protein.

plasma resistin = assay: Human endotoxemia study, plasma resistin (ELISA); type: in vivo; details: for increase of plasma resistin levels: healthy volunteers
Experimental: In another experiment, short term variation in plasma levels was examined by repeated sampling in young healthy control subjects of an additional clinical research study (Reilly et al, 2004c, and Lehrke, 2004, both cited above). Baseline variability in plasma resistin was assessed over a 24 hour period, in healthy young volunteers (n=6; three male and three females; age 24-34; BMI 24.3±1.07) without any past medical history and on no medications. These subjects were recruited to a 60-hour inpatient, General Clinical Research Center (GCRC) protocol designed to assess the metabolic responses to an inflammatory stimulus. Plasma resistin levels were determined in serial blood samples, collected at eight time points over 24 hours prior to the intravenous administration of human-research-grade endotoxin (3 ng/kg) as described in more detail in Reilly et al, 2004c, cited above.
Resistin concentrations, in cell media and human plasma, were assessed with a commercially available ELISA (Linco) and normalized to cell protein. Average correlation coefficient for standards using 4 parameter fit was 0.99. Intra-assay and inter-assay coefficients of variance were 4.7% and 9.1%, respectively. Direct comparison of standard curves generated by the Linco kit with another commercially available resistin ELISA (Biovendor) yielded high correlation (rho=0.99, p<0.001), except that the Biovendor results were approximately 30% lower than those determined with the Linco assay. This appeared to be related to the standards used for calibration. Discrepant absolute values among different assays, including the Biovendor assay, were recently described (Pfutzner 2003 cited above). Resistin levels in 40 plasma samples were measured using both Linco and Biovendor ELISA kits, with moderate correlation (rho=0.66). Levels of soluble TNFα Receptor-2 were measured using a commercially available immunoassay (R&D Systems). Intra-assay and inter assay coefficients of variance were 5.1% and 9.8%, respectively.
Healthy volunteers (n=6, 3 male, 3 female) aged 18-45 with BMI between 20 and 30 and on no medications were studied. The University of Pennsylvania Institutional Review Board approved the study protocol and all subjects gave written informed consent. Following screening and exclusion of subjects with any clinical or laboratory abnormalities, subjects were admitted to the General Clinical Research Center at the University of Pennsylvania for a 60 hour stay. Serial blood samples were collected for 24 hours prior to and 24 hours following the intravenous administration of human research grade endotoxin [obtained from NIH Clinical Center, reference endotoxin (CCRE) (lots 1 and 2; NIHCC PDS #67801)] at a dose of 3 ng/kg given at 6 AM. Plasma and whole blood RNA (PAX tube isolators, Qiagen) samples were isolated from blood, and stored under appropriate conditions for subsequent assays.

[4] = tested on: TNFα mRNA in primary human macrophages; assay: TNFα mRNA expression in primary human macrophages (real time PCR); type: cell-based; details: LPS 1 μg/ml
Experimental: as §2, with “Neutralizing antibodies to TNFα, IL-6, and anti-IL-6α, as well as control IgG were obtained from R&D Systems. Adenovirus expressing activated IKK in pAD-easy™ vector with GFP and control vector were a generous gift from Steven Shoelson.” left out
RNA was isolated using RNeasy® Mini Kit (Qiagen), then subjected to DNAse digestion followed by reverse transcription (Invitrogen). mRNA transcripts were quantified by the dual-labeled fluorogenic probe method for real time PCR, using a Prism® 7900 thermal cycler and sequence detector (Perkin Elmer/ABI). […]
Primer and probe for TNFα was obtained from ABI. […] The fold change of the gene of interest expression relative to the vehicle treated group was expressed as 2^− δδ^CT, in which δδ CT equals the δCT of the compound treated group minus δCT of the chosen control group, which was normalized to 1.

[5] = tested on: sTNFR2 secretion by human macrophages; assay: sTNFR2 secretion into medium by primary human macrophages; type: cell-based; details: LPS 1 μg/ml, time course
Experimental: Peripheral blood mononuclear cells were isolated from whole blood of healthy donors following apheresis and elutriation. Greater than 90% of these monocytes expressed CD14 and HLA-DR. Cells were plated in 24 well plates at a density of 10^6 cells per well, allowed to adhere for 4 hours, then washed with Dulbecco's Modified Eagles Medium (DMEM) and further cultured in 10% FBS in DMEM supplemented with 5 ng/ml GM-CSF (Sigma) to promote macrophage differentiation. All experiments were performed after overnight equilibration with macrophage serum free medium (Gibco/Invitrogen) supplemented with 5 ng/ml GM-CSF. […]
Resistin concentrations, in cell media and human plasma, were assessed with a commercially available ELISA (Linco) and normalized to cell protein. […] Direct comparison of standard curves generated by the Linco kit with another commercially available resistin ELISA (Biovendor) yielded high correlation (rho=0.99, p<0.001), except that the Biovendor results were approximately 30% lower than those determined with the Linco assay. […] Resistin levels in 40 plasma samples were measured using both Linco and Biovendor ELISA kits, with moderate correlation (rho=0.66). Levels of soluble TNFα Receptor-2 were measured using a commercially available immunoassay (R&D Systems). […]

[6] = tested on: mouse resistin in mouse peritoneal macrophages; assay: Resistin expression in activated mouse peritoneal macrophages; type: cell-based; details: macrophages harvested after thioglycolate treatment; data not shown
[7] = LPS 24 h treatment, increasing concentration
[8] = human macrophages in cell culture

Compound: C[S+]([O-])c1ccc(-c2nc(-c3ccc(F)cc3)c(-c3ccncc3)[nH]2)cc1 (stereo not drawn) [SB20358]
- effect on induction of resistin by LPS ([1]; 2.5 μM): partially blocked

Compound: CC(=O)Oc1ccccc1C(=O)O [aspirin]
- effect on endotoxin-induced resistin expression ([1]; pre-treated with aspirin 2 h, then LPS (1 μg/ml) and aspirin 24 h, dose-dependent): dramatically decreased

Compound: COc1cccc(-c2cc(=O)c3ccccc3o2)c1N [PD98059]
- effect on induction of resistin by LPS ([1]; 50 μM): partially blocked

Compound: IL-6: cytokine interleukin-6
- effect on resistin ([1]; data not shown and Kaser et al, 2003): induces resistin modestly

Compound: CC(C)C[C@@H](C=O)NC(=O)[C@H](CC(C)C)NC(=O)[C@H](CC(C)C)NC(=O)OCc1ccccc1 [MG132] (Cbz-Leu-Leu-Leu-aldehyde)
- effect on endotoxin-induced activation of resistin expression ([1]; MG132 treatment of macrophages, data not shown): abrogated

Compound: lipopolysaccharide [LPS]
- time of peak resistin gene expression after LPS ([1]; LPS 1 μg/ml): 24 h
- effect on resistin gene expression [1, 7]: dramatic, dose-responsive increase
- time of induction of resistin mRNA after LPS exposure [1, 8]: 6 to 24 h
- maximal secreted protein level: TNFα [2]: 207.2 ng/mL/mg
- maximal secreted protein level: resistin ([3]; LPS 1 μg/ml, time course, normalized to cell protein): 21.9 ng/mL/mg
- effect on resistin protein secretion into the medium [3, 7]: increase in resistin protein secretion
- time of induction of resistin protein after LPS exposure [3, 8]: 6 to 24 h
- increase of resistin serum/plasma levels (plasma resistin; LPS in humans (FIG. 6A)): over 400%
- putative maximum increase in resistin due to inflammation (plasma resistin; endotoxin induction, Examples 6-12): 18 to 19 ng/mL
- increase of plasma resistin levels (plasma resistin; intravenous LPS 3 ng/kg, listed as endotoxemia): > 7 fold
- increase of plasma resistin levels (plasma resistin; intravenous LPS 3 ng/kg, listed as endotoxin): 3-5 fold
- time of peak resistin levels after LPS administration (plasma resistin; intravenous LPS 3 ng/kg, six normal volunteers): 8 to 16 h
- time at which TNFα gene expression was detectable after LPS [4]: 2 h
- time of peak TNFα gene expression after LPS exposure [4]: 6 h
- maximal secreted protein level: sTNFR2 [5]: 39.3 ng/mL/mg
- mouse resistin expression after LPS [6]: did not express detectable levels
